US6426202B1, “Nystatin-resistant Aspergillus terreus CLS 247-13, KCTC 0673BP for preparing triol heptanoic acid employing the same” (priority 1999, dated 2002)

Key:
[1] = system: parent strain Aspergillus terreus CLS216-7; experiment: Minimal inhibitory concentration of nystatin, parent strain; format: cell-based; conditions: parent strain CLS216-7
Procedure: (§1) After incubating the culture in a liquid minimal medium containing nystatin for 1.5-3 hours, it was washed with saline solution, concentrated, diluted properly, and spreaded onto solid minimal medium containing 150 μg/ml of nystatin, and then the resultant was incubated at 28° C. for 8-15 days to isolate viable mutant strains. The isolated mutant strains resistant to nystatin, showing various morphological characteristics, were subcultured on solid minimal media containing increasing concentrations of nystatin (i.e., 150, 160, 170, 180, 190 and 200 […]) to select mutants showing increased resistance. The nystatin-resistant mutants thus obtained were incubated in an agar slant medium for 15-20 days. The spores formed were recovered in a 20% glycerin solution and subjected to liquid culture as disclosed in Example 2 below. As a result, the productivity of mevinolinic acid decreased and a variety of its analogues appeared. The mutant showing a high productivity of triol heptanoic acid of at least 11.5 g/L was selected and named ‘Aspergillus terreus CLS247-13’. Aspergillus terreus CLS247-13 maintained morphological characteristics, resistance to nystatin and high productivity of triol heptanoic acid constantly on a solid minimal medium containing 2 g/L of yeast extract for 10 generations. […]

[2] = system: mutant strain Aspergillus terreus CLS247-13; experiment: Minimal inhibitory concentration of nystatin, mutant strain; format: cell-based
Procedure: as §1

C[C@@H]1[C@H](O)[C@@H](C)/C=C/C=C/CC/C=C/C=C/C=C/C=C/C(O[C@H]2O[C@H](C)[C@@H](O)[C@H](N)[C@@H]2O)CC2O[C@](O)(CC(O)C(O)CCC(O)CC(O)CC(O)CC(=O)O[C@H]1C)CC(O)C2C(=O)O (stereo partly drawn) [nystatin]
Minimal inhibitory conc. of nystatin [1]: ≦25 μg/ml
Minimal inhibitory conc. of nystatin ([2]; mutant strain CLS247-13): ≦200 μg/ml
increase of minimal inhibitory concentration of nystatin (resistance to nystatin) compared with parent strain ([2]; mutant strain CLS247-13 compared with parent strain CLS216-7): 8 fold
